Several values for one entry are separate records, joined by “and”; a condition that tells them apart may be missing. Identical values can stand only once. Toxic doses and inconclusive results are not listed. How the source made its calls: active means survival T/C of 150% or more; inactive means T/C below 125% in these data.
System: P388 leukemia ip, CD2F1 mice, survival T/C
Assay: NCI In Vivo Anticancer Drug Screen. Data for tumor model P388 Leukemia (intraperitoneal) in CD2F1 (CDF1) mice
Conditions: endpoint: median survival time, higher = longer survival
Procedure, shortened: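 Mice carrying the transplanted tumor received test compound or vehicle. Survival was recorded in each group, and the value is the treated-group measurement divided by that of the vehicle-treated control group.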

[1] = dose: 50.0 mg/kg/injection, schedule: Q01DX005 (ip), vehicle: saline with Tween-80
[2] = dose: 100.0 mg/kg/injection, schedule: Q01DX005 (ip), vehicle: saline with Tween-80
[3] = dose: 200.0 mg/kg/injection, schedule: Q01DX005 (ip), vehicle: saline with Tween-80
[4] = dose: 60.0 mg/kg/injection, schedule: Q01DX005 (ip), vehicle: saline with Tween-80
[5] = dose: 120.0 mg/kg/injection, schedule: Q01DX005 (ip), vehicle: saline with Tween-80
[6] = dose: 240.0 mg/kg/injection, schedule: Q01DX005 (ip), vehicle: saline with Tween-80
[7] = dose: 50.0 mg/kg/injection, schedule: Q01DX009 (ip), vehicle: saline with Tween-80
[8] = dose: 100.0 mg/kg/injection, schedule: Q01DX009 (ip), vehicle: saline with Tween-80
[9] = dose: 200.0 mg/kg/injection, schedule: Q01DX009 (ip), vehicle: saline with Tween-80
[10] = dose: 50.0 mg/kg/injection, schedule: Q01DX005 (ip), vehicle: Klucel (hydroxypropylcellulose) (HPC)
[11] = dose: 100.0 mg/kg/injection, schedule: Q01DX005 (ip), vehicle: Klucel (hydroxypropylcellulose) (HPC)
[12] = dose: 200.0 mg/kg/injection, schedule: Q01DX005 (ip), vehicle: Klucel (hydroxypropylcellulose) (HPC)
[13] = dose: 30.0 mg/kg/injection, schedule: Q01DX005 (ip), vehicle: saline with Tween-80
[14] = dose: 50.0 mg/kg/injection, schedule: Q01DX009 (ip), vehicle: saline
[15] = dose: 100.0 mg/kg/injection, schedule: Q01DX009 (ip), vehicle: saline
[16] = dose: 200.0 mg/kg/injection, schedule: Q01DX009 (ip), vehicle: saline
[17] = dose: 100.0 mg/kg/injection, schedule: Q01DX001 (ip), vehicle: saline with Tween-80
[18] = dose: 200.0 mg/kg/injection, schedule: Q01DX001 (ip), vehicle: saline with Tween-80
[19] = dose: 400.0 mg/kg/injection, schedule: Q01DX001 (ip), vehicle: saline with Tween-80
[20] = dose: 25.0 mg/kg/injection, schedule: Q04DX002 (ip), vehicle: saline with Tween-80
[21] = dose: 50.0 mg/kg/injection, schedule: Q04DX002 (ip), vehicle: saline with Tween-80
[22] = dose: 100.0 mg/kg/injection, schedule: Q04DX002 (ip), vehicle: saline with Tween-80
[23] = dose: 50.0 mg/kg/injection, schedule: Q04DX002 (ip), vehicle: saline
[24] = dose: 100.0 mg/kg/injection, schedule: Q04DX002 (ip), vehicle: saline

Measured: T/C

O=C1CN(c2cccc(Cl)c2)C(=O)CN1/N=C/c1ccccn1
inactive: [1] 100 % of control | [2] 106 % of control | [3] 100 % of control

O=C(Nc1ccc(C(=O)O)cc1)Nc1cc(C(F)(F)F)ccc1Cl
inactive: [4] 105 % of control | [5] 105 % of control | [6] 105 % of control

CCC1=C(O)C(=O)C(C)(C)C1=O
inactive: dose: 50.0 mg/kg/injection, schedule: Q01DX005 (ip), vehicle: saline 99 % of control and 101 % of control | dose: 100.0 mg/kg/injection, schedule: Q01DX005 (ip), vehicle: saline 100 % of control and 96 % of control | dose: 200.0 mg/kg/injection, schedule: Q01DX005 (ip), vehicle: saline 90 % of control and 98 % of control

CCCCSc1ccc(N=[N+]([O-])c2ccc(SCCCC)nc2SCCCC)c(SCCCC)n1
inactive: [7] 94 % of control | [8] 90 % of control | [9] 88 % of control

C=CCCCCC1CC2CCCCN2O1 (stereo not drawn)
inactive: dose: 50.0 mg/kg/injection, schedule: Q01DX009 (ip), vehicle: Klucel (hydroxypropylcellulose) (HPC) 94 % of control | dose: 100.0 mg/kg/injection, schedule: Q01DX009 (ip), vehicle: Klucel (hydroxypropylcellulose) (HPC) 103 % of control | dose: 200.0 mg/kg/injection, schedule: Q01DX009 (ip), vehicle: Klucel (hydroxypropylcellulose) (HPC) 113 % of control

CC(=O)OC1SCCn2c1nc1ccccc1c2=O (stereo not drawn)
inactive: [1] 106 % of control | [2] 104 % of control | [3] 99 % of control

CS(=O)(=O)N/N=C1/C=C2C/C(=N\NS(C)(=O)=O)C=C2C1
inactive: [10] 92 % of control | [11] 96 % of control | [12] 95 % of control

ClC(Cl)(Cl)C(=NNc1ccccc1)C(Cl)(Cl)Cl
inactive: dose: 15.0 mg/kg/injection, schedule: Q01DX005 (ip), vehicle: saline with Tween-80 104 % of control | [13] 104 % of control | [4] 105 % of control and 110 % of control

Cn1/c(=N\N=C\c2ccccc2OCCO)sc2ccccc21
inactive: dose: 50.0 mg/kg/injection, schedule: Q01DX009 (ip), vehicle: saline + alcohol 103 % of control | dose: 100.0 mg/kg/injection, schedule: Q01DX009 (ip), vehicle: saline + alcohol 100 % of control | dose: 200.0 mg/kg/injection, schedule: Q01DX009 (ip), vehicle: saline + alcohol 101 % of control

O=C(CCl)NC(Cc1ccccc1F)C(=O)O (stereo not drawn)
inactive: [14] 106 % of control | [15] 102 % of control | [16] 101 % of control

Nc1nc(N)c2c(ccc3nc(-c4ccccc4)c(-c4ccccc4)nc32)n1
inactive: [17] 87 % of control | [18] 90 % of control

COc1cc(C(O)C2C(=O)OCC2C2(c3ccc4c(c3)OCO4)SCCCS2)cc(OC)c1OC (stereo not drawn)
inactive: [7] 107 % of control | [17] 109 % of control | [8] 115 % of control | [18] 104 % of control | [9] 108 % of control

COc1ccc2[nH]cc(/C=C(/C)c3ccncc3)c2c1
inactive: [17] 102 % of control | [18] 108 % of control | [19] 108 % of control

N#Cc1ccc2c(ccc3ncccc32)n1
inactive: [20] 100 % of control | [21] 100 % of control | [22] 101 % of control

CC1CCCN2C(=O)CN(N3CCOCC3)CC(=O)N12 (stereo not drawn)
inactive: [20] 100 % of control | dose: 25.0 mg/kg/injection, schedule: Q04DX002 (ip), vehicle: saline 95 % of control | [21] 94 % of control | [23] 95 % of control | [22] 99 % of control | [24] 102 % of control | dose: 200.0 mg/kg/injection, schedule: Q04DX002 (ip), vehicle: saline with Tween-80 94 % of control | dose: 200.0 mg/kg/injection, schedule: Q04DX002 (ip), vehicle: saline 94 % of control

C=CCC1=C(CC)C(=O)c2ccccc2C1=O
inactive: [10] 100 % of control | [11] 100 % of control | [12] 111 % of control

COC(=O)CCSC(=O)NC1CCCCC1
inactive: [10] 102 % of control | [11] 107 % of control | [12] 102 % of control

COc1c(C#N)c2c(c(OC)c1OC)-c1ccc(OC)c(=O)cc1[C@@H](NC(C)=O)CC2
inactive: dose: 3.12 mg/kg/injection, schedule: Q01DX009 (ip), vehicle: Klucel (hydroxypropylcellulose) (HPC) 113 % of control

CN(C)CCC(CCc1ccccc1)OC(=O)c1ccc([N+](=O)[O-])cc1 (stereo not drawn)
inactive: [23] 102 % of control | [24] 107 % of control

CCCn1c(Cl)c(/C=N\Nc2ccc([N+](=O)[O-])cc2)c2ccccc21
inactive: [17] 103 % of control | [18] 95 % of control | [19] 95 % of control

CN(C)CCNC(=O)c1noc2c1CSc1ccccc1-2
inactive: [17] 101 % of control | [18] 101 % of control | [19] 100 % of control

CCc1ccc2nc3ccccc3c(NCCCCCCNc3c4ccccc4nc4ccc(CC)cc34)c2c1
inactive: dose: 0.62 mg/kg/injection, schedule: Q01DX009 (ip), vehicle: other 100 % of control | dose: 1.25 mg/kg/injection, schedule: Q01DX009 (ip), vehicle: other 114 % of control | dose: 2.5 mg/kg/injection, schedule: Q01DX009 (ip), vehicle: other 105 % of control | dose: 5.0 mg/kg/injection, schedule: Q01DX009 (ip), vehicle: other 116 % of control | dose: 10.0 mg/kg/injection, schedule: Q01DX009 (ip), vehicle: other 124 % of control

C=CCN(CC=C)C(N)=Nc1ccccc1Cl
inactive: dose: 6.25 mg/kg/injection, schedule: Q01DX005 (ip), vehicle: saline 103 % of control | dose: 12.5 mg/kg/injection, schedule: Q01DX005 (ip), vehicle: saline 103 % of control | dose: 25.0 mg/kg/injection, schedule: Q01DX005 (ip), vehicle: saline 103 % of control

C[Si](C)(C)N1CCCC1
inactive: dose: 25.0 mg/kg/injection, schedule: Q01DX009 (ip), vehicle: saline 105 % of control | [14] 89 % of control | [15] 90 % of control | [16] 107 % of control

N#CC1OC1c1cccnc1 (stereo not drawn)
inactive: dose: 12.5 mg/kg/injection, schedule: Q01DX005 (ip), vehicle: saline with Tween-80 105 % of control and 111 % of control | dose: 25.0 mg/kg/injection, schedule: Q01DX005 (ip), vehicle: saline with Tween-80 105 % of control and 106 % of control | [1] 121 % of control

CC1=NN(c2cccc(S(=O)(=O)O)c2)C(=O)C1
inactive: dose: 25.0 mg/kg/injection, schedule: Q01DX009 (ip), vehicle: saline sonified 100 % of control | dose: 50.0 mg/kg/injection, schedule: Q01DX009 (ip), vehicle: saline sonified 100 % of control | [14] 89 % of control | dose: 100.0 mg/kg/injection, schedule: Q01DX009 (ip), vehicle: saline sonified 100 % of control | [15] 95 % of control | [16] 96 % of control

CC(C)(C)n1nc(C2CC2)cc1NC(=O)Nc1ccc(Cl)cc1
inactive: [4] 93 % of control | [5] 94 % of control | [6] 91 % of control

O=[N+]([O-])c1cnc(Sc2ccncn2)s1
inactive: dose: 1.56 mg/kg/injection, schedule: Q01DX009 (ip), vehicle: saline 103 % of control | dose: 3.12 mg/kg/injection, schedule: Q01DX009 (ip), vehicle: saline 108 % of control | dose: 6.25 mg/kg/injection, schedule: Q01DX009 (ip), vehicle: saline 100 % of control and 87 % of control | dose: 12.5 mg/kg/injection, schedule: Q01DX009 (ip), vehicle: saline 93 % of control

C=CCNC(=S)n1cnc(N)n1
inactive: [13] 107 % of control | [4] 105 % of control and 108 % of control | [5] 115 % of control and 96 % of control

C#Cc1cccc(N=Cc2cc(Br)cc(OC)c2O)c1
inactive: [1] 90 % of control | [2] 92 % of control | [3] 111 % of control

COc1ccccc1N=Nc1c(O)n(-c2ccccc2Cl)c(=S)n(-c2ccccc2OC)c1=O
inactive: dose: 50.0 mg/kg/injection, schedule: Q01DX001 (ip), vehicle: Klucel (hydroxypropylcellulose) (HPC) 102 % of control | dose: 100.0 mg/kg/injection, schedule: Q01DX001 (ip), vehicle: Klucel (hydroxypropylcellulose) (HPC) 102 % of control | dose: 200.0 mg/kg/injection, schedule: Q01DX001 (ip), vehicle: Klucel (hydroxypropylcellulose) (HPC) 101 % of control

From PubChem BioAssay AID330 (DTP/NCI, 2004)
